The values below come from ChEMBL document CHEMBL5291721, “A preclinical secondary pharmacology resource illuminates target-adverse drug reaction associations of marketed drugs” (Nat Commun, 2023).

One assay deals with Adenosine receptor A2a (Homo sapiens, UniProt P29274).
The target in assay [1] is Beta-2 adrenergic receptor (Homo sapiens, UniProt P07550).
The target in assay [2] is T1, Type-1 angiotensin II receptor (Homo sapiens, UniProt P30556).
T1 sequence (P30556 whole entry): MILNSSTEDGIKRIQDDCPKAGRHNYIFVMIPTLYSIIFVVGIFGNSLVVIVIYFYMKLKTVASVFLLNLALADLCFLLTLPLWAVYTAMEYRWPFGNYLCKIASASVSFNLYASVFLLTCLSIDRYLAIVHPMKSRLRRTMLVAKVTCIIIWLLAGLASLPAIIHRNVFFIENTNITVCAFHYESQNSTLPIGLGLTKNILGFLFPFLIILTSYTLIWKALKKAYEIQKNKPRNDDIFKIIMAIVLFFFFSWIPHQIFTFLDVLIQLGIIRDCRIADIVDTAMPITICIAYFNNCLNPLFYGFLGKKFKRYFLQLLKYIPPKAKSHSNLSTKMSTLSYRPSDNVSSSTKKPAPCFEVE

The target of assay [3] is T2, Muscarinic acetylcholine receptor M2 (Homo sapiens, UniProt P08172).
T2 sequence (P08172 whole entry): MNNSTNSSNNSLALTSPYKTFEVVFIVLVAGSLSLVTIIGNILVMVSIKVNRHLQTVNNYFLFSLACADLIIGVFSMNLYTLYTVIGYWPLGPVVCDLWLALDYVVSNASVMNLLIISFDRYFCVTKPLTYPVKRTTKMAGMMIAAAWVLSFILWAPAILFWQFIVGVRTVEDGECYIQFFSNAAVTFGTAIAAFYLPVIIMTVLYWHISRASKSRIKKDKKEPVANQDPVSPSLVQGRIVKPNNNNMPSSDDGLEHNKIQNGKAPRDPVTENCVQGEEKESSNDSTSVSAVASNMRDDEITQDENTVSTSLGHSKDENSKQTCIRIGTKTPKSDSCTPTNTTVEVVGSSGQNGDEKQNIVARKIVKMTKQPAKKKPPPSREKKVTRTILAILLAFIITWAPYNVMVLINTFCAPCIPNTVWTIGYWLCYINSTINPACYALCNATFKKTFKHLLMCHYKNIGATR
Type of assay: functional, cell-based.

In assay [4] the target is Growth hormone secretagogue receptor type 1 (Homo sapiens, UniProt Q92847).
For assay [5], the target named is T3, 5-hydroxytryptamine receptor 3A (Homo sapiens, UniProt P46098).
T3 sequence (P46098 whole entry): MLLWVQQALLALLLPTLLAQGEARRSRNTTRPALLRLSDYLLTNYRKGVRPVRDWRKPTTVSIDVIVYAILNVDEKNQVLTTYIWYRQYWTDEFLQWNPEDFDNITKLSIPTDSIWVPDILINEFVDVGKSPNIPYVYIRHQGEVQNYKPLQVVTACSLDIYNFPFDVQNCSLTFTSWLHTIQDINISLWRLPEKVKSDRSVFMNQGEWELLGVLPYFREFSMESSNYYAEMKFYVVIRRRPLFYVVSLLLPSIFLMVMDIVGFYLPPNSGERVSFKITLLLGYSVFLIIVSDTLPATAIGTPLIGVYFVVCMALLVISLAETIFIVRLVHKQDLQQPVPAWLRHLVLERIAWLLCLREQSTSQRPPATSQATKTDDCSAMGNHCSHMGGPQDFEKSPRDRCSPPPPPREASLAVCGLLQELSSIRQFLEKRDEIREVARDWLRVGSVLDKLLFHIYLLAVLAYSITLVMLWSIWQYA
Type of assay: functional.

For assay [6], the target named is Sodium-dependent dopamine transporter (Homo sapiens, UniProt Q01959).
The target of assay [7] is Sodium-dependent noradrenaline transporter (Homo sapiens, UniProt P23975).
The target in assay [8] is cGMP-inhibited 3',5'-cyclic phosphodiesterase 3A (Homo sapiens, UniProt Q14432). Type of assay: functional.
The next assay has as its target T4, Thromboxane A2 receptor (Homo sapiens, UniProt P21731).
T4 sequence (P21731 whole entry): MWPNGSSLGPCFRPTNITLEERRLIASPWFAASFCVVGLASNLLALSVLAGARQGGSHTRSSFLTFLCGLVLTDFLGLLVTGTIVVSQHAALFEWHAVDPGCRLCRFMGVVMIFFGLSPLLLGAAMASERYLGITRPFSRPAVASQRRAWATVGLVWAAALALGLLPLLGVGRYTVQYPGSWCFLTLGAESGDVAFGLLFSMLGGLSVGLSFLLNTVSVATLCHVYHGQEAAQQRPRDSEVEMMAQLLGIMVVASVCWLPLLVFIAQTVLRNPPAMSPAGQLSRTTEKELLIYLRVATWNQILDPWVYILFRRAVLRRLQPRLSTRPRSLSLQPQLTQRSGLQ
Type of assay: functional, cell-based.

The target of another assay is Mu-type opioid receptor (Homo sapiens, UniProt P35372).
Note: assay procedure not described here.

Chain of Mu-type opioid receptor (P35372 whole entry): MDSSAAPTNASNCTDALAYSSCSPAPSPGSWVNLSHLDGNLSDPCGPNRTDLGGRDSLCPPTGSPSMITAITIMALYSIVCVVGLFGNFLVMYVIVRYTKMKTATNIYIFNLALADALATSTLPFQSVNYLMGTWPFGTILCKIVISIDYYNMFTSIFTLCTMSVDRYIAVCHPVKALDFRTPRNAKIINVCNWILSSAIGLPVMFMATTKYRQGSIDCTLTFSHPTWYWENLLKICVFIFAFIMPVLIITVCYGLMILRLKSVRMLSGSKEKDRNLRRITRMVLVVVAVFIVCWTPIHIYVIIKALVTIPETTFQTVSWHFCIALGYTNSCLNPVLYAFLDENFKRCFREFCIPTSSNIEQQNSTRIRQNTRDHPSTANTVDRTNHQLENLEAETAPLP
Chain of Beta-2 adrenergic receptor (P07550 whole entry): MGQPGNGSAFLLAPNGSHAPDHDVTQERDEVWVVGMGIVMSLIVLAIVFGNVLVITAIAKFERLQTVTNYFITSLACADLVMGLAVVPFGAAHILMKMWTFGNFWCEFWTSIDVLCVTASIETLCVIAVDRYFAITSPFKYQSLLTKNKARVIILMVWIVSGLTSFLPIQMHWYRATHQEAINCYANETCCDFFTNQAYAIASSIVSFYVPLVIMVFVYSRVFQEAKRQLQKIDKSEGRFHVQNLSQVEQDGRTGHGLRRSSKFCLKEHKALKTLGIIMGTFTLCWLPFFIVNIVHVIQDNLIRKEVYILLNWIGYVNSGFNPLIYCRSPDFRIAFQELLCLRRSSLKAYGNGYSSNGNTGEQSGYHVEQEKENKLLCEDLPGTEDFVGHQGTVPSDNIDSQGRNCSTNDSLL
Chain of Growth hormone secretagogue receptor type 1 (Q92847 whole entry): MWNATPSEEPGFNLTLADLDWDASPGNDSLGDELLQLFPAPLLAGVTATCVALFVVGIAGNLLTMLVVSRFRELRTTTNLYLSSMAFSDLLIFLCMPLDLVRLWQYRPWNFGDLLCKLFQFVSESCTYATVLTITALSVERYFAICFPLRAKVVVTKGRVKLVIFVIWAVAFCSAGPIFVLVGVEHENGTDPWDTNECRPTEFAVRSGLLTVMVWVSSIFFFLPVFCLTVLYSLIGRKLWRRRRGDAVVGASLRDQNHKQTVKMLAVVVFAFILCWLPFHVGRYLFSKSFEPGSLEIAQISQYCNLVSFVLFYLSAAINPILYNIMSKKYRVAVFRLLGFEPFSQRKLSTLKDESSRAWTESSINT
Chain of cGMP-inhibited 3',5'-cyclic phosphodiesterase 3A (Q14432 whole entry): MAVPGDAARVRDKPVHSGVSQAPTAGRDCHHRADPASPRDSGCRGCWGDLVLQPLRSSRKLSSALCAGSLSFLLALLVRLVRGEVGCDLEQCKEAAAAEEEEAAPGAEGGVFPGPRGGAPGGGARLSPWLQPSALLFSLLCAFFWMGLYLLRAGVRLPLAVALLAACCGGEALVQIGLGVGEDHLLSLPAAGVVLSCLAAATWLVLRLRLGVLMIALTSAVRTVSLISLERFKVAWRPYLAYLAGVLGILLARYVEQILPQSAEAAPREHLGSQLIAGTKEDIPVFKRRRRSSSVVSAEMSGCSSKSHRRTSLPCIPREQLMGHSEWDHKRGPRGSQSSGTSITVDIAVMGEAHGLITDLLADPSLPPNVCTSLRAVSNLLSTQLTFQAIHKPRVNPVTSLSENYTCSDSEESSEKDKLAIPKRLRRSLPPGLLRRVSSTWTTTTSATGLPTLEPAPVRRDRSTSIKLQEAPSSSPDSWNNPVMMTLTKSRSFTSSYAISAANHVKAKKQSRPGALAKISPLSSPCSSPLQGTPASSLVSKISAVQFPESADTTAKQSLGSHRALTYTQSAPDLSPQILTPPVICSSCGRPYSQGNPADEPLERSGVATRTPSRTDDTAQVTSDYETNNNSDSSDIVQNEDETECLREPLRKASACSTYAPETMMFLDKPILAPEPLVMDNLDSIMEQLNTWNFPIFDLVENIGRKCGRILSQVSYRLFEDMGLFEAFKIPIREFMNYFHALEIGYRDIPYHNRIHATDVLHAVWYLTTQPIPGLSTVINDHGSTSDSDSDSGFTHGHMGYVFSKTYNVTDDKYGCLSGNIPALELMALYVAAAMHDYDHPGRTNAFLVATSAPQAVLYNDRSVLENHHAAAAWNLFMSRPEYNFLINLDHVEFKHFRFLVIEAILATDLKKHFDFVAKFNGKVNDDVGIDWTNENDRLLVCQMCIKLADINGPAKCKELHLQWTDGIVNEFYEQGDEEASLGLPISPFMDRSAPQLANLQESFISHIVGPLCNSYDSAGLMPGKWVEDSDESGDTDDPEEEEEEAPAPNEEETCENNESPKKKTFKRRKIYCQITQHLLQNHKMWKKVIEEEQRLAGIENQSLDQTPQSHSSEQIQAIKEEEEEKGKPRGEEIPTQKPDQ
Chain of Adenosine receptor A2a (P29274 whole entry): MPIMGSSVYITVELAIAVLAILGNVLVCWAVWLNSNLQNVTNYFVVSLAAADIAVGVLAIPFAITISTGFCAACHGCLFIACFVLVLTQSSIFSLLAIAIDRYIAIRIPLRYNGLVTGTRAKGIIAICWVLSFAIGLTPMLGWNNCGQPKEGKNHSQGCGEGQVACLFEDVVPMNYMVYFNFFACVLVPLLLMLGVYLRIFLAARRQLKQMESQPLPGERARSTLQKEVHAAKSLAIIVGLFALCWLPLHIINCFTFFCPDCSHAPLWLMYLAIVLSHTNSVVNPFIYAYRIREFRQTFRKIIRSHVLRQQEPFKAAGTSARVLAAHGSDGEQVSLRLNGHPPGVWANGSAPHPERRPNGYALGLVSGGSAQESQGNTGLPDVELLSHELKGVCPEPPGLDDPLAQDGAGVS
Chain of Sodium-dependent noradrenaline transporter (P23975 whole entry): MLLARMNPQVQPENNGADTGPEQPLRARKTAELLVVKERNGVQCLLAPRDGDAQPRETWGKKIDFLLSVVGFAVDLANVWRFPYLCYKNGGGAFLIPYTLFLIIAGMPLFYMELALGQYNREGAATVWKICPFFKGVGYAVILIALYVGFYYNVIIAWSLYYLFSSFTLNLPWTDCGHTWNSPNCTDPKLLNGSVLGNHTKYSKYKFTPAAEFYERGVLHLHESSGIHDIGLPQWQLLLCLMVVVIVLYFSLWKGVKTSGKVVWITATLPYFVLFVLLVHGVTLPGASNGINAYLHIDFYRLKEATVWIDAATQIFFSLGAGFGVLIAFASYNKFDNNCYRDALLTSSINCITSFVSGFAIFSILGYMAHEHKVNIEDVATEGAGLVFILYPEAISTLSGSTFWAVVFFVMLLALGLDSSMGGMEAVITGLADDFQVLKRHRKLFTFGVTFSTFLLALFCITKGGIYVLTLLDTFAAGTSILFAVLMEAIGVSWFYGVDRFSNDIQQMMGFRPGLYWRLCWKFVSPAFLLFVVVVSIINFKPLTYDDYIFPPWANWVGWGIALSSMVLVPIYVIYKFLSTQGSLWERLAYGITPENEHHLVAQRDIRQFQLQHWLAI
Chain of Sodium-dependent dopamine transporter (Q01959 whole entry): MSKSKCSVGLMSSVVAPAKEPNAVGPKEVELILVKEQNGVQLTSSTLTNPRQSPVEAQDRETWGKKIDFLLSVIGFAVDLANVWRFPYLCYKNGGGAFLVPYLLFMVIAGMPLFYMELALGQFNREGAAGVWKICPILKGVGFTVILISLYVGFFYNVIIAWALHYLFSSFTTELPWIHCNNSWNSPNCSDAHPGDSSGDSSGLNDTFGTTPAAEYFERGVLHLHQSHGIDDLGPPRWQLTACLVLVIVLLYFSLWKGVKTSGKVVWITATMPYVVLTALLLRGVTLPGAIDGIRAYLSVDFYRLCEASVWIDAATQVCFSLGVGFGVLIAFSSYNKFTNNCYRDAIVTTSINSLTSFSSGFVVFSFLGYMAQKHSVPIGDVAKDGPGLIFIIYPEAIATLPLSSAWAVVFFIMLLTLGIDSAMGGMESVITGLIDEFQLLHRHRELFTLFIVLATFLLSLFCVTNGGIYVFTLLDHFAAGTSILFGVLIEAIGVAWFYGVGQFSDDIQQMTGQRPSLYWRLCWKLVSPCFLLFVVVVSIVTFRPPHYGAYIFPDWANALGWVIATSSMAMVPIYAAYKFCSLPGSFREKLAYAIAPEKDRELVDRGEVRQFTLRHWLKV

As for `NC[C@H]1CC[C@H](C(=O)O)CC1` [TRANEXAMIC ACID], the AC50 was over 10 µM at Adenosine receptor A2a; over 10 µM in assay [1]; over 10 µM in assay [2]; over 10 µM in [3]; over 10 µM in [4]; over 30 µM in [5]. For the same molecule, the AC50 in assay [6] and in [7] was over 10 µM each time.

Take `NC(N)=Nc1nc(CSCCC(N)=NS(N)(=O)=O)cs1` [FAMOTIDINE]: the half-maximal activity concentration (AC50) at Adenosine receptor A2a is over 30 µM; in assay [1], over 10 µM; in assay [2] it was over 30 µM; in assay [3], over 10 µM; in assay [4] it was over 30 µM; in assay [5], over 10 µM. The AC50 in assay [6] and in assay [7] was over 10 µM each time.

For the molecule `Cc1cccc(C)c1OCC(C)N` (configuration not stated) [MEXILETINE], the AC50 (at Adenosine receptor A2a; in assay [2]; in [3]; in [4]; in assay [6]; in assay [7]) was over 30 µM each time.

As for `NC[C@H]1O[C@H](O[C@H]2[C@H](O)[C@@H](O[C@H]3O[C@H](CO)[C@@H](O)[C@H](N)[C@H]3O)[C@H](N)C[C@@H]2N)[C@H](O)[C@@H](O)[C@@H]1O` [KANAMYCIN], the half-maximal activity concentration (AC50) at Adenosine receptor A2a is over 10 µM; in [1] it was over 10 µM; in [2] it was over 10 µM; in assay [3], over 10 µM; in assay [4], over 10 µM; in assay [5], over 30 µM. Moreover, the AC50 in [6] and in assay [7] was over 10 µM throughout.

For the molecule `NS(=O)(=O)c1cc2c(cc1Cl)NCNS2(=O)=O` [HYDROCHLOROTHIAZIDE], the AC50 is over 30 µM at Adenosine receptor A2a; over 10 µM in assay [1]; over 30 µM in assay [2]; over 10 µM in assay [3]; over 30 µM in assay [4]; over 10 µM in assay [5]. In addition, the AC50 in [6] and in assay [7] was over 10 µM in each case.

As for `CC(C)(C(=O)c1cccnc1)c1cccnc1` [METYRAPONE], the concentration at half-maximal activity (AC50) at Adenosine receptor A2a was over 10 µM; in assay [1], over 10 µM; in assay [2] it was over 10 µM; in [3], over 10 µM; in assay [4] it was over 10 µM; in assay [5], over 30 µM. In addition, the AC50 in assay [6] and in assay [7] was over 10 µM throughout.

On to `CCOC(=O)[C@H](CCc1ccccc1)N[C@@H](C)C(=O)N1CCC[C@H]1C(=O)O`, for which the AC50 at Adenosine receptor A2a was over 30 µM; in assay [1], over 10 µM; in assay [2], over 30 µM; in assay [3], over 10 µM; in [4] it was over 30 µM; in assay [5], over 10 µM. Further, the half-maximal activity concentration (AC50) in [6] and in assay [7] was over 10 µM each time.

For the molecule `CC(=O)OCC(=O)[C@@]1(O)CC[C@H]2[C@@H]3CCC4=CC(=O)CC[C@]4(C)[C@H]3C(=O)C[C@@]21C` [CORTISONE ACETATE], the AC50 in assay [5] is over 30 µM.

As to `CCC[C@@H]1C[C@@H](C(=O)N[C@@H]([C@H]2O[C@H](SC)[C@H](O)[C@@H](O)[C@H]2O)[C@H](C)Cl)N(C)C1` [CLINDAMYCIN], the half-maximal activity concentration (AC50) was over 30 µM on Adenosine receptor A2a; over 10 µM in assay [1]; over 30 µM in [2]; over 10 µM in assay [3]; over 30 µM in assay [4]; over 30 µM in assay [5]. Also, the AC50 in [6] and in [7] was over 10 µM throughout.

Take `NC1=NC(=O)C(c2ccccc2)O1` (configuration not stated) [PEMOLINE]: the AC50 on Adenosine receptor A2a is over 30 µM; in assay [1] it was over 10 µM; in [2], over 30 µM; in [3] it was over 10 µM; in assay [4], over 30 µM; in assay [5] it was over 30 µM. For the same molecule, the AC50 in assay [6] was 3.46 µM; in [7], over 30 µM.

Consider `O=C1CC[C@@]2(O)[C@H]3Cc4ccc(O)c5c4[C@@]2(CCN3CC2CC2)[C@H]1O5` [NALTREXONE], for which the concentration at half-maximal activity (AC50) (in assay [8]; on Thromboxane A2 receptor) was over 30 µM throughout.

As for `O=C(O)c1cc(-c2ccc(F)cc2F)ccc1O` [DIFLUNISAL], the AC50 on Adenosine receptor A2a was over 10 µM; in [1], over 10 µM; in assay [2], over 10 µM; in [3] it was over 10 µM; in [4], over 10 µM; in [5] it was over 30 µM. Further, the AC50 in [6] and in [7] was over 10 µM in each case.

Consider `C#C[C@]1(O)CC[C@H]2[C@@H]3CCC4=CC(=O)CC[C@@H]4[C@H]3CC[C@@]21CC` [LEVONORGESTREL], for which the AC50 (at Mu-type opioid receptor; in assay [8]; on Thromboxane A2 receptor) was over 30 µM in each case.

On to `Sc1ncnc2nc[nH]c12` [MERCAPTOPURINE ANHYDROUS], for which the AC50 (on Mu-type opioid receptor; in assay [8]; at Thromboxane A2 receptor) was over 30 µM throughout.

As to `CC(O)CO` (configuration not stated) [PROPYLENE GLYCOL], the half-maximal activity concentration (AC50) (on Mu-type opioid receptor; in assay [8]; on Thromboxane A2 receptor) was over 30 µM throughout.

Consider `CC[C@H](C)C(=O)O[C@H]1C[C@H](O)C=C2C=C[C@H](C)[C@H](CC[C@@H](O)C[C@@H](O)CC(=O)O)[C@H]21` [PRAVASTATIN], for which the AC50 on Adenosine receptor A2a is over 30 µM; in assay [1], over 10 µM; in assay [2], over 30 µM; in assay [3], over 30 µM; in assay [4], over 30 µM; in assay [5] it was over 30 µM. The AC50 in [6] and in assay [7] was over 30 µM in each case.

As for `CC(C)NNC(=O)c1ccncc1` [IPRONIAZID], the half-maximal activity concentration (AC50) (on Adenosine receptor A2a; in assay [2]; in assay [3]; in [4]; in assay [5]; in assay [6]) was over 30 µM throughout. This molecule returned a half-maximal activity concentration (AC50) in [7] of over 30 µM.

As for `CN(C)CCCN1c2ccccc2CCc2ccc(Cl)cc21` [CLOMIPRAMINE], the concentration at half-maximal activity (AC50) in assay [3] was over 10 µM; in [5], over 30 µM; on Mu-type opioid receptor, 1.9 µM; in [6], 14.6 µM.

In the case of `C[C@H]1C[C@@H]2[C@H]([C@@H](O)C[C@@]3(C)[C@H]2CC[C@]3(O)C(=O)CO)[C@@]2(C)C=CC(=O)C=C12` [METHYLPREDNISOLONE], the half-maximal activity concentration (AC50) at Adenosine receptor A2a was over 10 µM; in [1] it was over 10 µM; in [2], over 10 µM; in [3], over 10 µM; in [4], over 10 µM; in [5], over 30 µM. For the same molecule, the half-maximal activity concentration (AC50) in [6] and in assay [7] was over 10 µM throughout.

On to `CCN(CC)CCNC(=O)c1cc(Cl)c(N)cc1OC` [METOCLOPRAMIDE], for which the AC50 is over 30 µM at Adenosine receptor A2a; over 10 µM in assay [1]; over 30 µM in [2]; over 30 µM in [4]; 3.55 µM in [5]; over 10 µM in assay [6]. The same molecule displayed an AC50 in [7] of over 10 µM.

Turning to `COC(=O)C1=C(C)NC(C)=C(C(=O)OCC(C)C)C1c1ccccc1[N+](=O)[O-]` (configuration not stated) [NISOLDIPINE], the AC50 was 5.5 µM at Adenosine receptor A2a; over 10 µM in assay [1]; over 10 µM in assay [2]; over 10 µM in [3]; over 10 µM in [4]; over 30 µM in assay [5]. Moreover, the half-maximal activity concentration (AC50) in [6] and in assay [7] was over 10 µM in each case.

One may read the AC50 as the midpoint of the concentration-response curve, whichever way the signal moves.
